Read-outs that look alike come from different tables or passages of the source. Where a SMILES comes first, the peptide text is derived from it. Bridges are numbered along the chain shown (N, C = ends). [ ]: non-standard residue; d: D form. Trp(1-CH2COOH) = N[C@@H](Cc1cn(CC(=O)O)c2ccccc12)C(=O)O; NMePhe(3-Cl) = CN[C@@H](Cc1cccc(Cl)c1)C(=O)O; NMeW = CN[C@@H](Cc1c[nH]c2ccccc12)C(=O)O; Phe(4-F) = N[C@@H](Cc1ccc(F)cc1)C(=O)O; NMeY = CN[C@@H](Cc1ccc(O)cc1)C(=O)O; NMeF = CN[C@@H](Cc1ccccc1)C(=O)O
Biological target: transferrin receptor (hTfR) (Homo sapiens, UniProt P02786)
Assay: Intermolecular interaction evaluation test between transferrin receptor (hTfR) and peptide by surface plasmon resonance (SPR)
Assay type: binding
Details: SPR, hTfR, class symbols A-D
Method in brief: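 Receptor was Ni-captured and EDC/NHS-fixed on an NTA chip; running buffer HEPES pH 8.0 with NaCl, Tween 20, BSA and 1.0% DMSO.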

[1] = read-out: KD (column without head, continuation of the table series)

Sequence of transferrin receptor (hTfR) (P02786 whole entry): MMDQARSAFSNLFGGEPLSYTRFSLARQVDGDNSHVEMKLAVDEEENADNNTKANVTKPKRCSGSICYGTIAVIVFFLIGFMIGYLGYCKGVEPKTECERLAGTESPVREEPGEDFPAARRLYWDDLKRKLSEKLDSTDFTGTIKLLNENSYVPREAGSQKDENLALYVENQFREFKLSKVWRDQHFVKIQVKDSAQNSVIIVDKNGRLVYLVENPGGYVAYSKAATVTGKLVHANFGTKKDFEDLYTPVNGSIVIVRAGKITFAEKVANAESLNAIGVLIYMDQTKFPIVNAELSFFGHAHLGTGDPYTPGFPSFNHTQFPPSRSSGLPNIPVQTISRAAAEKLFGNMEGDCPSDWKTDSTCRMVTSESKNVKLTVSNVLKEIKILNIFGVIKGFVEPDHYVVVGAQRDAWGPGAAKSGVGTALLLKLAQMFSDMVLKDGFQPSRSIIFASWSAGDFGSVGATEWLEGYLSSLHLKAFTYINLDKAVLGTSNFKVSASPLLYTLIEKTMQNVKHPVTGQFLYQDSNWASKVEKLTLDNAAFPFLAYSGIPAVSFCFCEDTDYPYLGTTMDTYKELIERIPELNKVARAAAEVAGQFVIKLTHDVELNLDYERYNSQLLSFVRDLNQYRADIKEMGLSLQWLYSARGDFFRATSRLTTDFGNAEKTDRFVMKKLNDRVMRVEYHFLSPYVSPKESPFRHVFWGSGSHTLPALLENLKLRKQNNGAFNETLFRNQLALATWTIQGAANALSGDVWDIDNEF

`CC[C@H](C)[C@@H]1NC(=O)[C@H](Cc2ccc(F)cc2)NC(=O)[C@H](Cc2ccc(O)cc2)NC(=O)[C@H](CC(N)=O)NC(=O)[C@H](Cc2c[nH]c3ccccc23)N(C)C(=O)[C@H](C(C)C)NC(=O)[C@H](Cc2cccc(Cl)c2)N(C)C(=O)[C@H](C(C)C)NC(=O)[C@H](C)NC(=O)CSC[C@@H](C(N)=O)NC(=O)[C@H](Cc2ccc(O)cc2)N(C)C(=O)[C@H](Cc2ccccc2)NC(=O)[C@@H](CCCNC(=N)N)NC(=O)[C@H](CCCNC(=N)N)NC(=O)[C@H]([C@@H](C)CC)NC1=O` [compound 467] ({CH2CO}-AV[NMePhe(3-Cl)]V[NMeW]NY[Phe(4-F)]IIR[dR]F[NMeY]C-NH2; thioether N-15) was tested, and the Kd (read-out: KD) was 1 to 100 nM.
`CC[C@H](C)[C@@H]1NC(=O)[C@H](Cc2ccc(O)cc2)NC(=O)[C@H](Cc2ccc(O)cc2)NC(=O)[C@H](CC(N)=O)NC(=O)[C@H](Cc2cn(CC(=O)O)c3ccccc23)NC(=O)[C@H](C(C)C)NC(=O)[C@H](Cc2ccccc2)N(C)C(=O)[C@H](C(C)C)NC(=O)[C@H](C)NC(=O)CSC[C@@H](C(N)=O)NC(=O)[C@H](Cc2ccc(O)cc2)N(C)C(=O)[C@H](Cc2ccc(O)cc2)NC(=O)[C@H](CCCNC(=N)N)NC(=O)C(C)(C)NC(=O)[C@H]([C@@H](C)CC)NC1=O` [compound 469] showed a Kd (read-out: KD) of 1 to 100 nM.
`CC[C@H](C)[C@@H]1NC(=O)[C@H](Cc2ccc(O)cc2)NC(=O)[C@H](Cc2ccc(O)cc2)NC(=O)[C@H](CC(N)=O)NC(=O)[C@H](Cc2cn(CC(=O)O)c3ccccc23)NC(=O)[C@H](C(C)C)NC(=O)[C@H](Cc2ccccc2)N(C)C(=O)[C@H](C(C)C)NC(=O)[C@H](C)NC(=O)CSC[C@@H](C(=O)N[C@H](CCC(=O)O)C(N)=O)NC(=O)[C@H](Cc2ccc(O)cc2)N(C)C(=O)[C@H](Cc2ccc(O)cc2)NC(=O)[C@@H](CCCNC(=N)N)NC(=O)[C@H](CCCNC(=N)N)NC(=O)[C@H](CCC(=O)O)NC1=O` [compound 473] ({CH2CO}-AV[NMeF]V[Trp(1-CH2COOH)]NYYIER[dR]Y[NMeY]C[dE]-NH2; thioether N-15) was tested, and the Kd (read-out: KD) was 100 to 1000 nM.
In the case of `CC[C@H](C)[C@@H]1NC(=O)[C@H](Cc2ccc(O)cc2)NC(=O)[C@H](Cc2ccc(O)cc2)NC(=O)[C@H](CC(N)=O)NC(=O)[C@H](Cc2c[nH]c3ccc(Cl)cc23)NC(=O)[C@H](C(C)C)NC(=O)[C@H](Cc2ccc(F)cc2)N(C)C(=O)[C@H](C(C)C)NC(=O)[C@H](C)NC(=O)CSC[C@@H](C(N)=O)NC(=O)[C@H](Cc2ccc(O)cc2)N(C)C(=O)[C@H](Cc2ccccc2)NC(=O)[C@H](CCCCNC(=O)CCOCCOCCOCCOC)NC(=O)[C@H](CCCNC(=N)N)N(C)C(=O)[C@H]([C@@H](C)CC)NC1=O` [compound 489], the Kd [1] is reported as 100 to 1000 nM.
Compound `CC[C@H](C)[C@@H]1NC(=O)[C@H](Cc2ccc(O)cc2)NC(=O)[C@H](Cc2ccc(O)cc2)NC(=O)[C@H](CC(N)=O)NC(=O)[C@H](Cc2c[nH]c3ccccc23)NC(=O)[C@H](C(C)C)NC(=O)[C@H](Cc2ccccc2)N(C)C(=O)[C@H](C(C)C)NC(=O)[C@H](C)NC(=O)CSC[C@@H](C(=O)NCC(=O)NCCOCCOCCOCCOCCOCCOCCOCCOCCOCCOCCOCCOCCC(=O)N[C@@H](CCCCN=[N+]=[N-])C(N)=O)NC(=O)[C@H](Cc2ccc(O)cc2)N(C)C(=O)[C@H](Cc2ccc(O)cc2)NC(=O)[C@H](CCCNC(=N)N)NC(=O)[C@H](CCCNC(=N)N)NC(=O)[C@H]([C@@H](C)CC)NC1=O` [compound 501] has a Kd [1] of 1 to 100 nM.
Work on `CC[C@H](C)[C@@H]1NC(=O)[C@H](Cc2ccc(OC)cc2)NC(=O)[C@H](Cc2ccc(O)cc2)NC(=O)[C@H](CC(N)=O)NC(=O)[C@H](Cc2c[nH]c3ccccc23)NC(=O)[C@H](C(C)C)NC(=O)[C@H](Cc2cccc(Cl)c2)N(C)C(=O)[C@H](C(C)C)NC(=O)[C@H](C)NC(=O)CSC[C@@H](C(=O)NCCOCCOCCOCCOCCC(N)=O)NC(=O)[C@H](Cc2ccc(O)cc2)N(C)C(=O)[C@H](Cc2ccccc2)NC(=O)[C@H](CCCNC(=N)N)NC(=O)[C@H](CCCNC(=N)N)NC(=O)[C@H]([C@@H](C)CC)NC1=O` [compound 502] yielded a Kd [1] of under 1 nM.
Compound `CC[C@H](C)[C@@H]1NC(=O)[C@H](Cc2ccc(OC)cc2)NC(=O)[C@H](Cc2ccc(O)cc2)NC(=O)[C@H](CC(N)=O)NC(=O)[C@H](Cc2c[nH]c3ccccc23)NC(=O)[C@H](C(C)C)NC(=O)[C@H](Cc2cccc(Cl)c2)N(C)C(=O)[C@H](C(C)C)NC(=O)[C@H](C)NC(=O)CSC[C@@H](C(=O)NCCOCCOCCOCCOCCC(N)=O)NC(=O)[C@H](Cc2ccc(O)cc2)N(C)C(=O)[C@H](Cc2ccccc2)NC(=O)[C@H](CCCNC(=N)N)NC(=O)[C@H](CCCCN)NC(=O)[C@H]([C@@H](C)CC)NC1=O` [compound 503] has a Kd [1] of under 1 nM.
`CC[C@H](C)[C@@H]1NC(=O)[C@H](Cc2ccc(OCCN)cc2)NC(=O)[C@H](Cc2ccc(O)cc2)NC(=O)[C@H](CC(N)=O)NC(=O)[C@H](Cc2c[nH]c3ccccc23)NC(=O)[C@H](C(C)C)NC(=O)[C@H](Cc2ccccc2)N(C)C(=O)[C@H](C(C)C)NC(=O)[C@H](C)NC(=O)CSC[C@@H](C(N)=O)NC(=O)[C@H](Cc2ccc(O)cc2)N(C)C(=O)[C@H](Cc2ccccc2)NC(=O)[C@H](CCCNC(=N)N)NC(=O)[C@H](CCCCN)NC(=O)[C@H]([C@@H](C)CC)NC1=O` [compound 521] showed a Kd [1] of 1 to 100 nM.
In the case of `CC[C@H](C)[C@@H]1NC(=O)[C@H](Cc2ccc(OCCN)cc2)NC(=O)[C@H](Cc2ccc(O)cc2)NC(=O)[C@H](CC(N)=O)NC(=O)[C@H](Cc2c[nH]c3ccccc23)NC(=O)[C@H](C(C)C)NC(=O)[C@H](Cc2ccccc2)N(C)C(=O)[C@H](C(C)C)NC(=O)[C@H](C)NC(=O)CSC[C@@H](C(N)=O)NC(=O)[C@H](Cc2ccc(O)cc2)N(C)C(=O)[C@H](Cc2ccccc2)NC(=O)[C@H](CCCNC(=N)N)NC(=O)[C@H](CCCNC(=N)N)NC(=O)[C@H]([C@@H](C)CC)NC1=O` [compound 522], the Kd [1] is reported as 100 to 1000 nM.
`CC[C@H](C)[C@@H]1NC(=O)[C@H](Cc2ccc(OCCN)cc2)NC(=O)[C@H](Cc2ccc(O)cc2)NC(=O)[C@H](CC(N)=O)NC(=O)[C@H](Cc2c[nH]c3ccccc23)NC(=O)[C@H](C(C)C)NC(=O)[C@H](Cc2ccccc2)N(C)C(=O)[C@H](C(C)C)NC(=O)[C@H](C)NC(=O)CSC[C@@H](C(N)=O)NC(=O)[C@H](Cc2ccc(O)cc2)N(C)C(=O)[C@H](Cc2ccccc2)NC(=O)[C@@H](CCCNC(=N)N)NC(=O)[C@H](CCCNC(=N)N)NC(=O)[C@H]([C@@H](C)CC)NC1=O` [compound 523] gave a Kd [1] of 100 to 1000 nM.
With `CC[C@H](C)[C@@H]1NC(=O)[C@H](Cc2ccc(OCCN)cc2)NC(=O)[C@H](Cc2ccc(O)cc2)NC(=O)[C@H](CC(N)=O)NC(=O)[C@H](Cc2c[nH]c3ccccc23)NC(=O)[C@H](C(C)C)NC(=O)[C@H](Cc2ccccc2)N(C)C(=O)[C@H](C(C)C)NC(=O)[C@H](C)NC(=O)CSC[C@@H](C(N)=O)NC(=O)[C@H](Cc2ccc(O)cc2)N(C)C(=O)[C@H](Cc2ccccc2)NC(=O)[C@H](CCCNC(=N)N)NC(=O)C(C)(C)NC(=O)[C@H]([C@@H](C)CC)NC1=O` [compound 524] the Kd [1] was 100 to 1000 nM.
`CC[C@H](C)[C@@H]1NC(=O)[C@H](Cc2ccc(O)cc2)NC(=O)[C@H](Cc2ccc(O)cc2)NC(=O)[C@H](CC(N)=O)NC(=O)[C@H](Cc2c[nH]c3ccccc23)NC(=O)[C@H](C(C)C)NC(=O)[C@H](Cc2ccccc2)N(C)C(=O)[C@H](C(C)C)NC(=O)[C@H](C)NC(=O)CSC[C@@H](C(=O)NCC(=O)N[C@@H](CCCCN)C(N)=O)NC(=O)[C@H](Cc2ccc(O)cc2)N(C)C(=O)[C@H](Cc2ccc(O)cc2)NC(=O)[C@H](CCCNC(=N)N)NC(=O)[C@H](CCCNC(=N)N)NC(=O)[C@H]([C@@H](C)CC)NC1=O` [compound 525] was tested, and the Kd [1] was 1 to 100 nM.
